Source: patent US10961236B2, “(S)-2-(1-cyclopropylethyl)-5-(4-methyl-2-((6-(2-oxopyrrolidin-1-yl)pyridin-2-yl)amino) thiazol-5-yl)-7-(methylsulfonyl)isoindolin-1-one as a phosphatidylinositol 3-kinase inhibitor” (AstraZeneca AB, priority 2016, dated 2021)

What was measured:
Type in all cases: biochemical
[1] = biological target: recombinant human PI3Kγ ((aa144-1102)-6His) (Homo sapiens (Human), UniProt P48736); test: Enzymatic activity assay for recombinant human PI3Kγ (ADP-Glo); conditions: 1.2 nM PI3Kγ, 20 μM ATP, 80 μM DiC8-PIP2, ADP-Glo
Protocol: (§1) Enzymatic Activity Assay for Recombinant Human PI3K α, β, δ and γ.
(§2) The activity of recombinant human PI3Kγ ((aa144-1102)-6His) and PI3Kα, β, δ (6-His(p110-p85α)) was determined by measuring the ADP level after phosphorylation of DiC8-PIP2 using a commercially available ADP-Glo™ kit from Promega. The assay was carried out in white low volume 384 well plates in a final volume of 14 μl at R.T. The assay conditions contained the following: 50 mM Tris buffer pH 7.4, 2.1 mM DTT, 3 mM MgCl2, 0.05% CHAPS, 20 μM ATP, 80 μM DiC8-PIP2 and 1.2 nM PI3Kα, β, γ or 0.6 nM PI3Kδ. […] Routinely, inhibitors were pre-incubated with 3 μl of enzyme for 15 min prior to the addition of 2 μl substrate mixture for a further 60 min enzyme reaction. The phosphorylation was stopped with the addition of 3 μl ADP-Glo™ reagent (stop solution) followed by a 40 min incubation. Prior to detection 6 μl of ADP-Glo™ Kinase Detection Reagent was added and the plates were read in a micro plate reader using a Luminescence filter. All additions were followed by a short centrifugation step.

[2] = biological target: recombinant human PI3Kδ (6-His(p110-p85α)) (Homo sapiens (Human), UniProt O00329); test: Enzymatic activity assay for recombinant human PI3Kδ (ADP-Glo); conditions: 0.6 nM PI3Kδ, 20 μM ATP, 80 μM DiC8-PIP2, ADP-Glo
Protocol: as §1, §2

[3] = biological target: recombinant human PI3Kα (6-His(p110-p85α)) (Homo sapiens (Human), UniProt P42336); test: Enzymatic activity assay for recombinant human PI3Kα (ADP-Glo); conditions: 1.2 nM PI3Kα, 20 μM ATP, 80 μM DiC8-PIP2, ADP-Glo
Protocol: as §1
as §2, with “PI3Kδ. Potential inhibitors were made up in DMSO and then diluted in the assay to give a final concentration of not exceeding 1% (v/v) DMSO.” for “PI3Kδ.”

[4] = biological target: recombinant human PI3Kβ (6-His(p110-p85α)) (Homo sapiens (Human), UniProt P42338); test: Enzymatic activity assay for recombinant human PI3Kβ (ADP-Glo); conditions: 1.2 nM PI3Kβ, 20 μM ATP, 80 μM DiC8-PIP2, ADP-Glo
Protocol: as §1
as §2, with “PI3Kδ. Potential inhibitors were made up in DMSO and then diluted in the assay to give a final concentration of not exceeding 1% (v/v) DMSO.” for “PI3Kδ.”

Chain of recombinant human PI3Kγ ((aa144-1102)-6His) (P48736 144-1102): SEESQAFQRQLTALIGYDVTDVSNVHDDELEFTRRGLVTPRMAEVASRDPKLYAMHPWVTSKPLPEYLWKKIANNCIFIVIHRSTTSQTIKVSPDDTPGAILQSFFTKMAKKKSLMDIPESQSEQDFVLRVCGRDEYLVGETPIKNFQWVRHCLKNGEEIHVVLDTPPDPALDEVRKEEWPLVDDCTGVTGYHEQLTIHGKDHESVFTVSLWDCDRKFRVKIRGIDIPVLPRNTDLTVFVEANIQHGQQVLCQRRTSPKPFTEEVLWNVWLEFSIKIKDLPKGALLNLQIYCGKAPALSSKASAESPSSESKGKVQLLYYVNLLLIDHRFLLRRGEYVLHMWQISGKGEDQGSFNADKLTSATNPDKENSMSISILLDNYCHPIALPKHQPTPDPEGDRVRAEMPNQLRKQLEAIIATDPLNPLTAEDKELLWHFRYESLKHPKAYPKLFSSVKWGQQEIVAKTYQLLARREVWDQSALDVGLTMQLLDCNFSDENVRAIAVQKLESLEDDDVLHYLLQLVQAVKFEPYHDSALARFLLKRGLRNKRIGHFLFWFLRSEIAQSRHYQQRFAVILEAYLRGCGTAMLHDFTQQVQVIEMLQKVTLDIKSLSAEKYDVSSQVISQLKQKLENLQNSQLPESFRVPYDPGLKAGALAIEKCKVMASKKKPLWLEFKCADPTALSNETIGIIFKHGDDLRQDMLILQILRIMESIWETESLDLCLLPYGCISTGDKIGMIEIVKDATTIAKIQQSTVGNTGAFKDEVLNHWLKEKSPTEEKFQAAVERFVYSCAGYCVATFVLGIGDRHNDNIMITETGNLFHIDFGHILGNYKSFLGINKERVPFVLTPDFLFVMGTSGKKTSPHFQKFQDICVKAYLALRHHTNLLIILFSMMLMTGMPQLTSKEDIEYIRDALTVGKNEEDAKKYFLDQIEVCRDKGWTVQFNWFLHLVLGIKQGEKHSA
Chain of recombinant human PI3Kδ (6-His(p110-p85α)) (O00329 whole entry): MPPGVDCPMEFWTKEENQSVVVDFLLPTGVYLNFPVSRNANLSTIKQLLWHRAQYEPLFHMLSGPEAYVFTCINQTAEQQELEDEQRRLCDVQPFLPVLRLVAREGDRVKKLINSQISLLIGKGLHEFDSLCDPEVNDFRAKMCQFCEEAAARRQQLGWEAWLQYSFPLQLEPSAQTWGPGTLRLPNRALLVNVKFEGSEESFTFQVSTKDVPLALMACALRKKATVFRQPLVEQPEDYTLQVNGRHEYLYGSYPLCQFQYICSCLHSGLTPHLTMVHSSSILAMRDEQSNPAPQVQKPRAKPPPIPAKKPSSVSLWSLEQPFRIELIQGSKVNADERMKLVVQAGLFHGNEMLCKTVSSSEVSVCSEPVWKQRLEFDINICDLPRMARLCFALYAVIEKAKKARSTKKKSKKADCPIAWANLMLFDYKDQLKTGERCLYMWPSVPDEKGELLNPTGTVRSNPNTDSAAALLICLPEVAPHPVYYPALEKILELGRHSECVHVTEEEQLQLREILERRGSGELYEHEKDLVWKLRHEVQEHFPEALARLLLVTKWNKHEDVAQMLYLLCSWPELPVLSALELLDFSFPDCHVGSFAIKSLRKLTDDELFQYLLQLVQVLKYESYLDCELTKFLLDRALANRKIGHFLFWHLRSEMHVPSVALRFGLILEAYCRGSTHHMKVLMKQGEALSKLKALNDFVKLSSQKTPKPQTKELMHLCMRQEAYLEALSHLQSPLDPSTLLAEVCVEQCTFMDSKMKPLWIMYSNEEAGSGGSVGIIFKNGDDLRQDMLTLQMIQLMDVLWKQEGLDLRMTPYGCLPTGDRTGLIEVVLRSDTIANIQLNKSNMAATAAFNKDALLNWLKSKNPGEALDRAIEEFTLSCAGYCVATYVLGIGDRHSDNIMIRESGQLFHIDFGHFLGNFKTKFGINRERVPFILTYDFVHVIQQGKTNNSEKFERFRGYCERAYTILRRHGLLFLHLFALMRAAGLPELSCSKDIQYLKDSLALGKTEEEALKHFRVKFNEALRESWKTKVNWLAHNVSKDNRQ
Chain of recombinant human PI3Kδ (6-His(p110-p85α)) (P27986 whole entry partner): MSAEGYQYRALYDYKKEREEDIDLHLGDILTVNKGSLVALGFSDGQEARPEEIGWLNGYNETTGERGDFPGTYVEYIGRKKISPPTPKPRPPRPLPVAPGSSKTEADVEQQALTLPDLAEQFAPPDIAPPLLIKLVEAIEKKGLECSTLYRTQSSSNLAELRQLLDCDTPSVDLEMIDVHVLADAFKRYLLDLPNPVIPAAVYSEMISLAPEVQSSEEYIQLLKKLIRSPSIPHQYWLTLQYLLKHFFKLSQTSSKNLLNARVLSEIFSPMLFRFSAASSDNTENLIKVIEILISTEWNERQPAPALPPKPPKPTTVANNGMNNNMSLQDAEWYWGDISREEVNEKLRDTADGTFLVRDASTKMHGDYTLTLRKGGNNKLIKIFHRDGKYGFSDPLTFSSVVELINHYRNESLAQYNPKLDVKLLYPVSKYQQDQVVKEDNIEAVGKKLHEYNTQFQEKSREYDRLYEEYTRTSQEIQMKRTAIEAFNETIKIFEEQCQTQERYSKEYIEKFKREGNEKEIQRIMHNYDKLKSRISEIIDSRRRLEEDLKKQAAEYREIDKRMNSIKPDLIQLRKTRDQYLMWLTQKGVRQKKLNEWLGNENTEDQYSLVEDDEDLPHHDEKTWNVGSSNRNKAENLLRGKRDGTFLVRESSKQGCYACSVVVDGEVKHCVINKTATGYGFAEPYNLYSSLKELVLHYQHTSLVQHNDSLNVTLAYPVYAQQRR
Chain of recombinant human PI3Kα (6-His(p110-p85α)) (P42336 whole entry): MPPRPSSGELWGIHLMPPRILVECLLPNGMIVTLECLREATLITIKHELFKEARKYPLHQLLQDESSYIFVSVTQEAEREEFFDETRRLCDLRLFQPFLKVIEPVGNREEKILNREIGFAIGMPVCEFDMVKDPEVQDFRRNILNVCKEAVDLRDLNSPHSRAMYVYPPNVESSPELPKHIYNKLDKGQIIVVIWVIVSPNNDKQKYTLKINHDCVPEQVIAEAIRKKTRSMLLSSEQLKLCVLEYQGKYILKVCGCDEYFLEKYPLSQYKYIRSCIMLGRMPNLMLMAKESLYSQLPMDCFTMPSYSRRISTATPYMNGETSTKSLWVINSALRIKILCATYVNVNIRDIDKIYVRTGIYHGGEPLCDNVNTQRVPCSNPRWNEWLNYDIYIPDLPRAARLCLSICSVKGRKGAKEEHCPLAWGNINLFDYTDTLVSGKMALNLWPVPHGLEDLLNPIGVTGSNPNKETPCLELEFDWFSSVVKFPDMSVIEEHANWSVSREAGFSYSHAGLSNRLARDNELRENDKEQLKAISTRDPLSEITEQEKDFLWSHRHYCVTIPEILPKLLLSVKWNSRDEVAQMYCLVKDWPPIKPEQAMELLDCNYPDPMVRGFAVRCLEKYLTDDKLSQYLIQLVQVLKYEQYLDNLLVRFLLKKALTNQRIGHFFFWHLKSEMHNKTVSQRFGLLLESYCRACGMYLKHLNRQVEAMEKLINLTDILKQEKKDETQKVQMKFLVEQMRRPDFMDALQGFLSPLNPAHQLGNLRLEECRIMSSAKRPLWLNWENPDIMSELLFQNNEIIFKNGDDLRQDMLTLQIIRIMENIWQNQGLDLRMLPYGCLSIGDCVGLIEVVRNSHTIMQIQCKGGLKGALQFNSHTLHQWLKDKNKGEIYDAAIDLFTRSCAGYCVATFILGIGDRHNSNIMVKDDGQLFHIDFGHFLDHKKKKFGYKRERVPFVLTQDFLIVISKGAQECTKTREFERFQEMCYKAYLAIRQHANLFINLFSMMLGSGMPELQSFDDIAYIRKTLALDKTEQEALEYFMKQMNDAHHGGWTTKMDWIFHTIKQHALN
Chain of recombinant human PI3Kα (6-His(p110-p85α)) (P27986 whole entry partner): as the sequence (P27986 whole entry partner) above
Chain of recombinant human PI3Kβ (6-His(p110-p85α)) (P42338 whole entry): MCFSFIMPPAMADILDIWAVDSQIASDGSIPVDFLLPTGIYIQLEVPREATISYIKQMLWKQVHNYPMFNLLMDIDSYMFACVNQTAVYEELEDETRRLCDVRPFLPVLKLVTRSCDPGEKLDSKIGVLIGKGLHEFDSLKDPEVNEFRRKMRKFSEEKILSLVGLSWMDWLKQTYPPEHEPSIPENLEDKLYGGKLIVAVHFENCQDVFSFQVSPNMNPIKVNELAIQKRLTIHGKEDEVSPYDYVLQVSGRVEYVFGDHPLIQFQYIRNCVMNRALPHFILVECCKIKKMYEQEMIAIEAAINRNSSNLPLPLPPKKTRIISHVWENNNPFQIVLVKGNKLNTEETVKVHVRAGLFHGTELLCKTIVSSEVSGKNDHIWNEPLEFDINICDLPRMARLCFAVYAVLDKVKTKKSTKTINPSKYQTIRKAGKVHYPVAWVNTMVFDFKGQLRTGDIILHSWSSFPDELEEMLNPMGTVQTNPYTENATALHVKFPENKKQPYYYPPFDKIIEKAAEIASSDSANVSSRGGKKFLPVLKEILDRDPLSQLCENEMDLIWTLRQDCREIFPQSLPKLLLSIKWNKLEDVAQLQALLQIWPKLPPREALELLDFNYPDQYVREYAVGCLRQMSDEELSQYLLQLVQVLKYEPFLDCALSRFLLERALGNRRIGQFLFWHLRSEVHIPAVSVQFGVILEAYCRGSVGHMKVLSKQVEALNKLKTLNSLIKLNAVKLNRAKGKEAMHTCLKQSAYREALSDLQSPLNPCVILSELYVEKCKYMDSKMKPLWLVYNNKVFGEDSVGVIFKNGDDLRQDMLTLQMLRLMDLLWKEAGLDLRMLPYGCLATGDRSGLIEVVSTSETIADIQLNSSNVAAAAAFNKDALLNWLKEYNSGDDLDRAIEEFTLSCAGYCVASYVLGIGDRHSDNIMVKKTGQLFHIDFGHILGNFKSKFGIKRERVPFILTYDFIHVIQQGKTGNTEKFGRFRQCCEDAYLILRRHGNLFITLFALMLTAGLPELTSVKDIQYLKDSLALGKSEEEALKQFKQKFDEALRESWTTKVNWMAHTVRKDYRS
Chain of recombinant human PI3Kβ (6-His(p110-p85α)) (P27986 whole entry partner): as the sequence (P27986 whole entry partner) above

Compound	IC50 [1]	IC50 [2]	IC50 [3]	IC50 [4]
CNS(=O)(=O)c1cc(-c2sc(Nc3cccc(N4CCCOC4=O)n3)nc2C)cc2c1C(=O)N([C@@H](C)C1CC1)C2 [Example 21, 2-[(1S)-1-Cyclopropylethyl]-N-methyl-6-(4-methyl-2-{[6-(2-oxo-1,3-oxazinan-3-yl)pyridin-2-yl]amino}-1,3-thiazol-5-yl)-3-oxo-2,3-dihydro-1H-isoindole-4-sulfonamide]	1.1 nM	0.6 nM	19 nM	103 nM
CNS(=O)(=O)c1cc(-c2sc(Nc3cccc(N4CCN(C)CC4=O)n3)nc2C)cc2c1C(=O)N([C@@H](C)C1CC1)C2 [Example 22, 2-[(1S)-1-Cyclopropylethyl]-N-methyl-6-(4-methyl-2-{[6-(4-methyl-2-oxopiperazin-1-yl)pyridin-2-yl]amino}-1,3-thiazol-5-yl)-3-oxo-2,3-dihydro-1H-isoindole-4-sulfonamide]	1 nM	1.3 nM	38 nM	328 nM
CNS(=O)(=O)c1cc(-c2sc(Nc3cccc(N4CC(=O)N5CCC[C@H]5C4=O)n3)nc2C)cc2c1C(=O)N([C@@H](C)C1CC1)C2 [Example 23, 2-[(1S)-1-Cyclopropylethyl]-6-[2-({6-[(8aS)-1,4-dioxohexahydropyrrolo[1,2-a]pyrazin-2(1H)-yl]pyridin-2-yl}amino)-4-methyl-1,3-thiazol-5-yl]-N-methyl-3-oxo-2,3-dihydro-1H-isoindole-4-sulfonamide]	1.3 nM	19.4 nM	368 nM	4880 nM
CNS(=O)(=O)c1cc(-c2sc(Nc3cccc(N4CCCC4=O)n3)nc2C)cc2c1C(=O)N([C@@H](C)C(F)(F)F)C2 [Example 25, N-Methyl-6-(4-methyl-2-{[6-(2-oxopyrrolidin-1-yl)pyridin-2-yl]amino}-1,3-thiazol-5-yl)-3-oxo-2-[(2S)-1,1,1-trifluoropropan-2-yl]-2,3-dihydro-1H-isoindole-4-sulfonamide]	1.1 nM	0.7 nM	70 nM	505 nM
CCNS(=O)(=O)c1cc(-c2sc(Nc3cccc(N4CCOCC4=O)n3)nc2C)cc2c1C(=O)N([C@@H](C)C(F)(F)F)C2 [Example 27, N-Ethyl-6-(4-methyl-2-{[6-(3-oxomorpholin-4-yl)pyridin-2-yl]amino}-1,3-thiazol-5-yl)-3-oxo-2-[(2S)-1,1,1-trifluoropropan-2-yl]-2,3-dihydro-1H-isoindole-4-sulfonamide]	0.9 nM	0.7 nM	65 nM	178 nM
Cc1nc(Nc2cccc(N3CCOCC3=O)n2)sc1-c1cc2c(c(S(=O)(=O)NC(C)C)c1)C(=O)N([C@@H](C)C(F)(F)F)C2 [Example 28, 6-(4-Methyl-2-{[6-(3-oxomorpholin-4-yl)pyridin-2-yl]amino}-1,3-thiazol-5-yl)-3-oxo-N-(propan-2-yl)-2-[(2S)-1,1,1-trifluoropropan-2-yl]-2,3-dihydro-1H-isoindole-4-sulfonamide]	2.6 nM	1.2 nM	318 nM	798 nM
Cc1nc(Nc2cccc(N3CCCOC3=O)n2)sc1-c1cc2c(c(S(=O)(=O)NC(C)C)c1)C(=O)N([C@@H](C)C(F)(F)F)C2 [Example 29, 6-(4-Methyl-2-{[6-(2-oxo-1,3-oxazinan-3-yl)pyridin-2-yl]amino}-1,3-thiazol-5-yl)-3-oxo-N-(propan-2-yl)-2-[(2S)-1,1,1-trifluoropropan-2-yl]-2,3-dihydro-1H-isoindole-4-sulfonamide]	2.2 nM	0.5 nM	47 nM	62 nM

Further lines, results first:

IC50 [1]	IC50 [2]	IC50 [3]	IC50 [4]	Compound
0.9 nM	0.4 nM	80 nM	724 nM	CNS(=O)(=O)c1cc(-c2sc(Nc3cccc(N(C)C(=O)COC)n3)nc2C)cc2c1C(=O)N([C@@H](C)C1CC1)C2 [Example 14, N-{6-[(5-{2-[(1S)-1-Cyclopropylethyl]-7-(methylsulfamoyl)-1-oxo-2,3-dihydro-1H-isoindol-5-yl}-4-methyl-1,3-thiazol-2-yl)amino]pyridin-2-yl}-2-methoxy-N-methylacetamide]
1 nM	1.2 nM	89 nM	1160 nM	CNS(=O)(=O)c1cc(-c2sc(Nc3cccc(N(C)C(=O)[C@@H](C)OC)n3)nc2C)cc2c1C(=O)N([C@@H](C)C1CC1)C2 [Example 15, (2R)—N-{6-[(5-{2-[(1S)-1-Cyclopropylethyl]-7-(methylsulfamoyl)-1-oxo-2,3-dihydro-1H-isoindol-5-yl}-4-methyl-1,3-thiazol-2-yl)amino]pyridin-2-yl}-2-methoxy-N-methylpropanamide]
1.2 nM	0.8 nM	55 nM	539 nM	CNS(=O)(=O)c1cc(-c2sc(Nc3cccc(N(C)C(=O)[C@H](C)OC)n3)nc2C)cc2c1C(=O)N([C@@H](C)C1CC1)C2 [Example 16, (2S)—N-{6-[(5-{2-[(1S)-1-Cyclopropylethyl]-7-(methylsulfamoyl)-1-oxo-2,3-dihydro-1H-isoindol-5-yl}-4-methyl-1,3-thiazol-2-yl)amino]pyridin-2-yl}-2-methoxy-N-methylpropanamide]
1.1 nM	0.3 nM	48 nM	677 nM	CCOCC(=O)N(C)c1cccc(Nc2nc(C)c(-c3cc4c(c(S(=O)(=O)NC)c3)C(=O)N([C@@H](C)C3CC3)C4)s2)n1 [Example 17, N-{6-[(5-{2-[(1S)-1-Cyclopropylethyl]-7-(methylsulfamoyl)-1-oxo-2,3-dihydro-1H-isoindol-5-yl}-4-methyl-1,3-thiazol-2-yl)amino]pyridin-2-yl}-2-ethoxy-N-methylacetamide]
0.8 nM	0.3 nM	25 nM	231 nM	CCN(C(=O)COC)c1cccc(Nc2nc(C)c(-c3cc4c(c(S(=O)(=O)NC)c3)C(=O)N([C@@H](C)C3CC3)C4)s2)n1 [Example 18, N-{6-[(5-{2-[(1S)-1-Cyclopropylethyl]-7-(methylsulfamoyl)-1-oxo-2,3-dihydro-1H-isoindol-5-yl}-4-methyl-1,3-thiazol-2-yl)amino]pyridin-2-yl}-N-ethyl-2-methoxyacetamide]
0.9 nM	0.7 nM	37 nM	543 nM	CNS(=O)(=O)c1cc(-c2sc(Nc3cccc(N4CCOCC4=O)n3)nc2C)cc2c1C(=O)N([C@@H](C)C1CC1)C2 [Example 20, 2-[(1S)-1-Cyclopropylethyl]-N-methyl-6-(4-methyl-2-{[6-(3-oxomorpholin-4-yl)pyridin-2-yl]amino}-1,3-thiazol-5-yl)-3-oxo-2,3-dihydro-1H-isoindole-4-sulfonamide]
0.9 nM	0.4 nM	42 nM	897 nM	CNS(=O)(=O)c1cc(-c2sc(Nc3cccc(N4CCCS4(=O)=O)n3)nc2C)cc2c1C(=O)N([C@@H](C)C1CC1)C2 [Example 24, 2-[(1S)-1-Cyclopropylethyl]-6-(2-{[6-(1,1-dioxido-1,2-thiazolidin-2-yl)pyridin-2-yl]amino}-4-methyl-1,3-thiazol-5-yl)-N-methyl-3-oxo-2,3-dihydro-1H-isoindole-4-sulfonamide]
1.1 nM	0.5 nM	110 nM	562 nM	CCNS(=O)(=O)c1cc(-c2sc(Nc3cccc(N(C)C(=O)COC)n3)nc2C)cc2c1C(=O)N([C@@H](C)C1CC1)C2 [Example 26, N-{6-[(5-{2-[(1S)-1-Cyclopropylethyl]-7-(ethylsulfamoyl)-1-oxo-2,3-dihydro-1H-isoindol-5-yl}-4-methyl-1,3-thiazol-2-yl)amino]pyridin-2-yl}-2-methoxy-N-methylacetamide]
